Test systems include DLD-1 colon; DMS 273 small cell lung; HOP-18 NSCLC; KM20L2 colon; P388 leukemia; P388/ADR leukemia; SN12K1 renal; SNB-78 CNS; XF 498 CNS; DMS 114 small cell lung; RXF-631 renal.
Holding throughout (test): NCI tumour cell line growth inhibition, 48 h

Where “and” joins values, the source holds several entries; their conditions need not be identical. Equal values may be shown once.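 Growth conditions: 96-well plates. Treatment: test compound, 48 hours, 5 concentrations. Analysis: linear interpolation between bracketing concentrations; unreached endpoints set to highest concentration. GI50: concentration for 50% inhibition of growth. TGI: concentration producing complete growth inhibition.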 A value given as a limit tells only on which side of the number the result lay.

As for `CC[C@@]1(O)C(=O)OCc2c1cc1n(c2=O)Cc2cc3cc(O)ccc3nc2-1`, the GI50 with DLD-1 colon was 514 nM; with DMS 273 small cell lung, 27.2 nM and 21.7 nM; with KM20L2 colon, 186 nM; with SNB-78 CNS, 213 nM; with XF 498 CNS, 51.8 nM. Further, the TGI with DLD-1 colon is 75000 nM and > 87200 nM; in the experiment with DMS 273 small cell lung it was 470 nM and 1740 nM; in the experiment on HOP-18 NSCLC it was 5200 nM; with KM20L2 colon it was 8140 nM and 4970 nM; in the experiment with P388 leukemia, 1430 nM; in the experiment on P388/ADR leukemia, 1030 nM. Besides, the TGI was 937 nM in the experiment with SN12K1 renal; 18100 nM and > 100000 nM in the experiment with SNB-78 CNS; 183 nM and 472 nM with XF 498 CNS.
Take `CN(C)CC1CCCC/C1=N\OC(=O)c1ccccc1` (configuration not stated): the TGI in the experiment on DLD-1 colon, in the experiment on DMS 114 small cell lung, with DMS 273 small cell lung, in the experiment with HOP-18 NSCLC, in the experiment with KM20L2 colon and with RXF-631 renal was over 100000 nM each time. The TGI in the experiment with SNB-78 CNS and with XF 498 CNS was over 100000 nM throughout.

Source of the values: PubChem BioAssay (NCI).
